Consider three compounds from patent US8399024B2, “Water-insoluble medicine” (Ebara Corporation, priority 2006, dated 2013).

Each structure is given as a SMILES string. Where a name gives a salt, the structure may show the parent alone. Read-outs that look alike come from different tables or passages of the source.

Series [1] has as its system human gastric cancer H-23 (moderately differentiated-type adenocarcinoma). Nature of the series: Anti-tumor effect using nude mice-transplanted human tumor (Example 2). Type of series: in vivo, BALB/cAJcl-nu nude mouse. The conditions noted are these: 60 mg/kg i.v. q4d×4, final day d35.
Series [2] shares this test system. Description: Anti-tumor effect using nude mice-transplanted human tumor (Example 3). The settings on record: 60 mg/kg i.v. d7, d11, d14.
Series [3] in a line: Influence of the drug on the host: change in weight and symptoms (Example 3). Type of series: in vivo, BALB/cAJcl-nu nude mouse. The conditions noted are these: 60 mg/kg i.v. d7, d11, d14. As to the method: The experiment was ended after 4 weeks from the starting day of administration. The tumor cell diameter was measured twice a week, and the weight was measured at the time of administration, so as to monitor the state of tumor cell proliferation and effect of drug administration, as well as any other physical changes. The mice were kept in a small vinyl isolator throughout the experiment, except for when they were moved to a clean bench through a sleeve to perform tumor cell transplantation, administration or weight measurement.
The influence of the drug on the host was evaluated by considering the change in weight and the expression of symptoms.

For the next series, the system named is MCF-7 tumor cells. Nature of the series: Cytotoxicity test, viable cell count with Cell Counting Kit-8 (WST-8). Type of series: cell-based. The settings on record: read-out: 50% inhibiting activity. As to the method: Ellipticine which had been size-reduced by laser beam irradiation (concentration: 2 μg/ml) was diluted with the below-mentioned culturing solution, and test samples having concentrations of 1 μg/ml, 0.5 μg/ml, 0.25 μg/ml and 0.125 μg/ml were prepared. MCF-7 (MEM-culture medium) and L-1210 (RPMI-1640 culture medium) tumor cells were used as target cells. The cytotoxicity was evaluated by counting the number of viable cells following 24 hours of culturing, using Cell Counting Kit-8. More specifically, WST-8 (U.S. Pat. No. 2,757,348) as an indicate for dehydrogenase activities was used, and the color at 450 nm was evaluated. Viability(%)=(Asamples−Ablank)/(Ano-samples−Ablank) 100%
The cytotoxicity of the SN-38 nano particles was evaluated by counting the number of viable cells following 24 hours of culturing in the same manner as in the cytotoxicity test of ellipticine as described in item (3-4) of Example 1. The 50% inhibiting activity for MCF-7 cells was 100 nM.
The cytotoxicity of the 10-hydroxy-camptothecin nano particles was evaluated by counting the number of viable cells following 72 hours of culturing in the same manner as in the cytotoxicity test of ellipticine as described in item (3-4) of Example 1. The 50% inhibiting activity for MCF-7 cells was 100 nM.

As for `CCc1c2c(nc3ccc(OC(=O)N4CCC(N5CCCCC5)CC4)cc13)-c1cc3c(c(=O)n1C2)COC(=O)[C@]3(O)CC` [CPT-11, irinotecan hydrochloride], the drug effect evaluation entry in series [1] is “non-effective (IR of below 58%)”. Besides, in series [2] (d18), the “evaluation of max. IR” value was “effective (IR≧58%)” and the “max. IR” value came to 69.0%. Moreover, the drug effect evaluation result in series [2] (d21) is “non-effective (IR of below 58%)”. In series [2] (final day d35), the drug effect evaluation entry is listed as “non-effective (IR of below 58%)”. Also, in series [3], the body state result is listed as “not good” and the “maximum weight loss (max. wt. loss)” value is on record as 0.4%.

Regarding `CC[C@@]1(O)C(=O)OCc2c1cc1n(c2=O)Cc2cc3cc(O)ccc3nc2-1` [DMSO solution of 10-hydroxy-camptothecin, 10-hydroxy-camptothecin], in the series on MCF-7 tumor cells (MCF-7, 72 hours of culturing), the IC50 stood at 100 nM.

`CCc1c2c(nc3ccc(O)cc13)-c1cc3c(c(=O)n1C2)COC(=O)[C@]3(O)CC` [DMSO solution of SN-38, 7-ethyl-10-hydroxycamptothecin]: in the series on MCF-7 tumor cells (MCF-7, 24 hours of culturing), the IC50 was 500 nM.
